In BigSolDB 2.1:

C[C@H](N)C(=O)O
solubility (mole fraction)
Conditions	283.15 K	293.15 K	303.15 K	313.15 K	323.15 K
in acetone	7.1e-05	0.000116	0.000138	0.000166	0.000202
in acetonitrile	7.6e-05	0.000121	0.000157	0.000178	0.000209
in ethanol	0.000193	0.000226	0.000244	0.000251	0.00027
in ethyl acetate	7.8e-05	0.00014	0.00016	0.00018	0.000217
in isobutanol	0.000294	0.000314	0.000332	0.000346	0.000361
in isopropanol	8.2e-05	0.000144	0.000174	0.00019	0.000245
in methanol	0.000407	0.000428	0.00049	0.000531	0.00062
in n-butanol	0.000414	0.000449	0.000517	0.000611	0.000895
in n-pentanol	0.000216	0.000253	0.00032	0.000382	0.000465
in n-propanol	0.000122	0.000215	0.000261	0.000313	0.000452
in sec-butanol	0.000297	0.000333	0.000407	0.000552	0.000734
in water	0.0279	0.0308	0.0342	0.038	0.042
